Measurements from ChEMBL document CHEMBL6092215, “A Prostate-Specific Membrane Antigen-Targeting Small Molecule-Drug Conjugate Strategy to Overcome the Hematological Toxicity of Olaparib” (J Med Chem, 2024).
Activity calls are given as the source filed them. No cut-off for these calls is given here.

Key:
[1] = Subacute toxicity in male ICR mouse assessed as decrease in body weight at 100 mg/kg, po administered via gavage for 30 days relative to control; format: organism-based; set-up: scale not given: the % may be the effect or the level left; conditions: in vivo, 720 h, time 30 day
[2] = Drug uptake in PSMA negative human PC-3 cells at 10 uM measured after 1 to 6 hrs by LC-MS/MS analysis; format: ADME, cell-based; conditions: pc-3, 10 µM, time 1-6 hrs
CWR22R [3] = assay: Antitumor activity against human 22Rv1 cells xenografted in male BALB/c nude mouse at 100 mg/kg administered via gavage; format: functional, organism-based
[4] = Toxicity in male BALB/c nude mouse xenografted with human 22Rv1 cells assessed as decrease in hemoglobin at 100 mg/kg administered via gavage by routine blood test; format: organism-based; conditions: in vivo, po
PC-3 = assay: Antiproliferative activity against PSMA negative human PC-3 cells assessed as effect on cell viability incubated for 72 hrs by MTT assay; format: functional
[5] = Subacute toxicity in male ICR mouse assessed as decrease in WBC level at 100 mg/kg, po administered via gavage for 30 days by blood routine test relative to control; format: organism-based; set-up: scale not given: the % may be the effect or the level left; conditions: in vivo, 720 h, time 30 day
[6] = Toxicity in male BALB/c nude mouse xenografted with human 22Rv1 cells assessed as decrease in lymphocytes at 100 mg/kg administered via gavage by routine blood test; format: organism-based; conditions: in vivo, po
CWR22R [7] = assay: Induction of DNA damage in human 22Rv1 cells assessed as increase in number of gamma-H2AX foci at 100 uM incubated for 12 hrs by DAPI staining based immunofluorescence analysis; format: functional, cell-based
[8] = Toxicity in male BALB/c nude mouse xenografted with human 22Rv1 cells assessed as decrease in body weight at 100 mg/kg administered via gavage; format: organism-based; conditions: in vivo, po
[9] = Subacute toxicity in male ICR mouse assessed as decrease in neutrophil level at 100 mg/kg, po administered via gavage for 30 days by blood routine test relative to control; format: organism-based; set-up: scale not given: the % may be the effect or the level left; conditions: in vivo, 720 h, time 30 day
LNCaP = assay: Antiproliferative activity against human LNCaP cells with high PSMA expression assessed as effect on cell viability incubated for 72 hrs by MTT assay; format: functional, cell-based
[10] = Toxicity in male BALB/c nude mouse xenografted with human 22Rv1 cells assessed as decrease in red blood cells at 100 mg/kg administered via gavage by routine blood test; format: organism-based; conditions: in vivo, po
[11] = Toxicity in male BALB/c nude mouse xenografted with human 22Rv1 cells assessed as decrease in granulocytes at 100 mg/kg administered via gavage by routine blood test; format: organism-based; conditions: in vivo, po
[12] = Subacute toxicity in male ICR mouse assessed as decrease in red blood cells at 100 mg/kg, po administered via gavage for 30 days by blood routine test relative to control; format: organism-based; set-up: scale not given: the % may be the effect or the level left; conditions: in vivo, 720 h, time 30 day
[13] = Subacute toxicity in male ICR mouse assessed as decrease in hematocrit level at 100 mg/kg, po administered via gavage for 30 days by blood routine test relative to control; format: organism-based; set-up: scale not given: the % may be the effect or the level left; conditions: in vivo, 720 h, time 30 day
[14] = Drug uptake in PSMA positive human 22Rv1 cells at 10 uM measured after 1 to 6 hrs by LC-MS/MS analysis; format: ADME, cell-based; conditions: cwr22r, time 1-6 hrs
[15] = Subacute toxicity in male ICR mouse assessed as decrease in lymphocytes level at 100 mg/kg, po administered via gavage for 30 days by blood routine test relative to control; format: organism-based; set-up: scale not given: the % may be the effect or the level left; conditions: in vivo, 720 h, time 30 day
CWR22R [16] = assay: Antiproliferative activity against human 22Rv1 cells assessed as reduction in cell viability at 125 uM in presence of DUPA; format: functional, cell-based
[17] = Antiproliferative activity against PSMA negative human RWPE-1 cells assessed as effect on cell viability incubated for 72 hrs by MTT assay; format: toxicity, cell-based; conditions: RWPE-1 cells (PSMA negative)
CWR22R [18] = assay: Antitumor activity against human 22Rv1 cells xenografted in male BALB/c nude mouse assessed as tumor growth inhibition at 100 mg/kg administered via gavage relative to control; format: functional; conditions: 22Rv1, po, read-out: TGI
CWR22R [19] = assay: Antiproliferative activity against human 22Rv1 cells with high PSMA expression assessed as effect on cell viability incubated for 72 hrs by MTT assay; format: functional, cell-based; conditions: 22Rv1, 72 h
[20] = Subacute toxicity in male ICR mouse assessed as decrease in hemoglobin level at 100 mg/kg, po administered via gavage for 30 days by blood routine test relative to control; format: organism-based; set-up: scale not given: the % may be the effect or the level left; conditions: in vivo, 720 h, time 30 day

Structure (SMILES): O=C(c1cc(Cc2n[nH]c(=O)c3ccccc23)ccc1F)N1CCN(C(=O)C2CC2)CC1 [OLAPARIB]
- Activity [1]: 8%
- Drug uptake [2]: Active
- Activity (CWR22R [3]): Active
- Activity [4]: Toxic
- CC50 (PC-3): 91.5 µM
- Activity [5]: 28.12%
- Activity [6]: Toxic
- Activity (CWR22R [7]): Active
- Activity [8]: Non-toxic
- Activity [9]: 10.4%
- IC50 (LNCaP): 56.5 µM
- Activity [10]: Toxic
- Activity [11]: Toxic
- Activity [12]: 15.73%
- Activity [13]: 12.82%
- Drug uptake [14]: Active
- Activity [15]: 32.71%
- Activity (CWR22R [16]): Active; Drug Mode Of Action Appears To Be Independent Of Binding To Psma Receptor
- CC50 at 72 h [17]: 85.5 µM
- inhibition in vivo at 100 mg/kg (CWR22R [18]): 61%
- IC50 (CWR22R [19]): 61.6 µM
- Activity [20]: 11.69%
